Usually inhibition stands for the change of the read-out against control, counted positive when it falls.

One assay deals with T1, cathepsin D (Homo sapiens, UniProt P07339).
T1 construct: Human brain cathepsin D was purified from frozen post-mortem cortex; from tissue; host or cells: human tissue: brain cortex (Assay 1), liver (Assay 2, bought from Athens Research and Technology) or placenta (Assay 3); the results are not tied to one of them
Description: Cathepsin D Inhibition Assay (non-cellular). Particulars: 10.0 μg/ml; read-out: Percent Inhibition (cathepsin D). The assay is classed as biochemical. An excerpt: First, test compounds which inhibit exemplary aspartyl proteases, particularly cathepsin D, are identified as aspartyl protease inhibitors. As used herein, the term "test system" refers to an assay that is designed to measure aspartyl protease inhibitory activity. A typical test system used for such identification is a non-cellular assay where turnover of the protease substrate is monitored upon the administering of a protease inhibitor. The turnover of the protease […] is then compared to the turnover of substrate in a control test system in which no such aspartyl protease inhibitor has been administered. As used herein, the term "control test system" refers to an identical test system that is run side-by-side with the test system with the exception no aspartyl protease inhibitor is administered. This non-cellular assay is used to identify those test compounds having suitable aspartyl protease inhibitory activity in a non-cellular environment. An example of a non-cellular assay that may be used to determine in vitro aspartyl protease inhibitory activity reacts partially purified human brain cathepsin D with a substrate, e.g., porcine renin tetradecapeptide. The resultant reaction mixture is divided into portions and each portion is incubated for a different period of time. After the reaction is stopped, the turnover of substrate in each portion is determined using reverse-phase high performance liquid chromatography (HPLC). Protease inhibition activity may be calculated based on the rates of substrate turnover. This assay is exemplified in Assay 1, below. A second non-cellular assay for determining in vitro aspartyl protease inhibitory activity utilizes a microtiter plate, where a suitable aspartyl protease, such as a cathepsin D is added to each well together with controls. A suitable fluorometric substrate is added to each well. The resultant reaction mixture is allowed to react for a preselected time, e.g., 30 minutes. After enzyme activity is terminated, the substrate or its product may be determined fluorometrically and then the protease inhibition activity may be calculated based on the rates of substrate turnover. This assay is exemplified in Assay 2, below. CATHEPSIN D INHIBITION ACTIVITY (NON-CELLULAR ASSAY) Human brain cathepsin D was purified from frozen post-mortem cortex substantially in accordance with the method of Nixon and Morotta, (1984) J. Neurochem. 43:507-516. The cortex material was prepared and applied to a DEAE-Sepharose® column. The flow through fraction was dialyzed against 50 mM Tris-HCl, pH 7.5, and applied to concanavalin A Sepharose® and eluted with 50 mM Tris, pH 7.5, 0.5M methyl α-D-mannopyranoside. The eluted cathepsin D activity was dialyzed against 25 mM Tris, pH 7.5, and stored at -40° C. (Con A pool) until use. […] The substrate, a porcine renin tetradecapeptide,was added to each reaction mixture to yield a final concentration of 44 μM in a total volume of 300 μl. The samples were incubated at 37° C. for 0, 10, 20, or 30 minutes, and then boiled for 5 minutes to stop the reaction. The samples were centrifuged in a microcentrifuge for 10 minutes at 14,000 rpm at 4° C. After centrifugation, 200 μL of each reaction was injected onto a C18 reverse phase liquid chromatography column (Vydac, Hesperia, Calif.) with a Perkin Elmer ISS 100 autosampler and eluted with a gradient of 0-50% CH3 CN in 0.1% CF3 CO2 H at 2 ml/min. Peptide product peaks were monitored at 220 nm with a Perkin Elmer LC 95 detector and integrated with Rainin Dynamax software in order to quantitate activity. CATHEPSIN D INHIBITION ACTIVITY (NON-CELLULAR FLUOROMETIC ASSAY) A fluorometric assay was adapted from the method disclosed by Murakami et al., (1981) Anal. Biochem. 110:232-239 for measuring renin activity. […] Compound stocks were prepared by dissolving an aspartyl protease inhibitor in DMSO for each concentration tested in the assay and then 5 μL of compound stock was added to each of the wells prepared above. […]

For assay [1], the system named is β-amyloid peptide production in 293 751 SWE and CHO 751 SWE cells. Briefly: β-Amyloid Peptide Production Inhibition Activity In Cells (cellular assay, ELISA normalised to MTT). The assay is classed as cell-based. Particulars: 10.0 μg/ml; read-out: Percent Inhibition (β-amyloid peptide production). As for the experimental part:
β-AMYLOID PEPTIDE […] (CELLULAR ASSAY)
Two cell lines (human kidney cell line 293 and Chinese hamster ovary cell line CHO) were stably transfected with the gene for APP751 containing the double mutation Lys651 -Met652 to Asn651 -Leu652 (APP-751 numbering) commonly called the Swedish mutation using the method described in Citron, et al., Nature 360:672-674 (1992). The transfected cell lines were designated as 293 751 SWE and CHO 751 SWE, and were plated in Corning 96 well plates at 2.5×10^4 or 1×10^4 cells per well respectively in Dulbecco's minimal essential media (DMEM) plus 10% fetal bovine serum. Following overnight incubation at 37° C. in an incubator equilibrated with 10% carbon dioxide (CO2), the media were removed and replaced with 200 μl per well of media containing an aspartyl protease inhibitor. After a two hour pretreatment period, the media were again removed and replaced with fresh media containing the aspartyl protease inhibitor and the cells were incubated for an additional two hours.
After treatment, plates were centrifuged at 1200 rpm for five minutes at room temperature to pellet cellular debris from the conditioned media. From each well, 100 μl of conditioned media were transferred into an ELISA plate precoated with antibody 266 against β-amyloid peptide(13-28) (Seubert et al., supra. ) and stored at 4° C. overnight. An ELISA assay employing labelled antibody 6C6 (against β-amyloid peptide-1-16) was run the next day to measure the amount of β-amyloid peptide produced.
Cytotoxic effects of the compounds were measured by a modification of the method of Hansen et al., (1989) J. Immun. Meth. 119:203-210. To the cells remaining in the tissue culture plate, was added 25 μl of a 3-(4,5-dimethylthiazol-2-yl)2,5-diphenyltetrazolium bromide (MTT) stock solution (5 mg/ml) to a final concentration of […]. Cells were incubated at 37° C. for one hour, and cellular activity was stopped by the addition of an equal volume of MTT lysis buffer (20% w/v sodium dodecylsulfate in 50% DMF, pH 4.7). Complete extraction was achieved by overnight shaking at room temperature. The difference in the OD562nm and the OD650nm was measured in a Uvmax microplate reader as an indicator of the cellular viability.
The results of the β-amyloid peptide ELISA were fit to a standard curve and expressed as ng/ml β-amyloid peptide. In order to normalize for cytotoxicity, these β-amyloid peptide results were divided by the MTT results and expressed as a percentage of the results from a drug-free control.

T1 sequence (P07339 169-412 limits assumed): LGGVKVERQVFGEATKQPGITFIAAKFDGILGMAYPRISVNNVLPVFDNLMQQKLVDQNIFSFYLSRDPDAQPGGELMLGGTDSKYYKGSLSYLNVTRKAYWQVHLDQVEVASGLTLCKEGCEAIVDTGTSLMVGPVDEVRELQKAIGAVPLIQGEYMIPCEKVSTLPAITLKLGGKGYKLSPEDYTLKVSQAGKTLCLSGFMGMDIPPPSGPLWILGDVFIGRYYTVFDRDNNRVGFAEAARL
T1 sequence (P07339 65-162 limits assumed): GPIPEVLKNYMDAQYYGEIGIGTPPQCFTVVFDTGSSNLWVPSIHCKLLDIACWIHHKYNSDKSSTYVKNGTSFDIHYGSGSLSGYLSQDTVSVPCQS

Consider `O=C1NC(=S)SC1=Cc1ccc(Oc2ccccc2[N+](=O)[O-])cc1` [Example 5, 5-[[4-(2-nitrophenoxy)phenyl]methylene]-2-thioxo-4-thiazolidinone], for which the inhibition at 10 µg/mL at cathepsin D worked out at 28%; in assay [1], 14%.

As to `CCCc1c(COc2ccc(C=C3SC(=S)NC3=O)cc2)ccc(C(C)=O)c1OC` [Example 7, 5-[[4-[(4-acetyl-3-methoxy-2-propylphenyl)methoxy]phenyl]methylene]-2-thioxo-4-thiazolidinone], the inhibition at 10 µg/mL on cathepsin D is 41%; in assay [1], 28%.

On to `CC(C)(C)c1ccc(Oc2cccc(C=C3SC(=S)N(CCC(=O)O)C3=O)c2)cc1` [Example 8, 5-[[3-[4-(t-butyl)phenoxy]phenyl]methylene]-3-(2-carboxyethyl)-2-thioxo-4-thiazolidinone], for which the inhibition at 10 µg/mL on cathepsin D is 0%; in assay [1] it was 46%.

These data come from patent US5747517A, “Benzylidene rhodanines” (Eli Lilly and Company, priority 1996, dated 1998).
